According to PubChem BioAssay AID180 (DTP/NCI, 2004):
Values joined by “and” are separate entries in the source; they are usually repeats but may differ in a detail not shown here. Identical values can stand only once.

System: BDF1 mice, Adenocarcinoma 755 s.c., tumor weight T/C
Assay: NCI In Vivo Anticancer Drug Screen. Data for tumor model Adenocarcinoma 755 (subcutaneous) in B6D2F1 (BDF1) mice
Conditions: endpoint: mean tumor weight, higher = larger tumour
Method in brief: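 Transplantable tumor implanted; mice dosed with compound or vehicle; survival or tumor size recorded; ratio of treated to vehicle control reported.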

[1] = dose: 50.0 mg/kg/injection, schedule: Q01DX011 (ip), vehicle: carboxymethylcellulose (CMC)

In the case of [Br][Hg][CH2]C1COC([CH2][Hg][Br])CO1 (stereo unspecified), the T/C (dose: 6.0 mg/kg/injection, schedule: Q01DX011 (ip), vehicle: carboxymethylcellulose (CMC)) is reported as 101 % of control, the T/C (dose: 12.0 mg/kg/injection, schedule: Q01DX011 (ip), vehicle: carboxymethylcellulose (CMC)) is reported as 60 % of control and the T/C [1] is reported as 27 % of control.

With Nc1ncnc2c1ncn2CCCl the T/C (dose: 37.5 mg/kg/injection, schedule: Q01DX011 (ip), vehicle: methylcellulose (MC)) was 84 % of control and the T/C (dose: 75.0 mg/kg/injection, schedule: Q01DX011 (ip), vehicle: methylcellulose (MC)) was 31 % of control.

With O=C(Nc1ccc(NC2=NCCN2)cc1)c1ccc(C(=O)Nc2ccc(NC3=NCCN3)cc2)cc1 the T/C (dose: 4.0 mg/kg/injection, schedule: Q01DX011 (ip), vehicle: saline) was 96 % of control, the T/C (dose: 8.0 mg/kg/injection, schedule: Q01DX011 (ip), vehicle: saline) was 85 % of control and the T/C (dose: 16.0 mg/kg/injection, schedule: Q01DX011 (ip), vehicle: saline) was 83 % of control.

For Nc1nc(SN=Nc2ccc(S(=O)(=O)O)cc2)c2[nH]cnc2n1, the T/C (dose: 0.13 mg/kg/injection, schedule: Q01DX011 (sc), vehicle: alkali diluted with saline) was 70 % of control, the T/C (dose: 0.25 mg/kg/injection, schedule: Q01DX011 (sc), vehicle: alkali diluted with saline) was 48 % of control and the T/C (dose: 0.5 mg/kg/injection, schedule: Q01DX011 (ip), vehicle: alkali diluted with saline) was 50 % of control. For the same compound, the T/C (dose: 0.5 mg/kg/injection, schedule: Q01DX011 (ip), vehicle: other) was 46 % of control, the T/C (dose: 0.5 mg/kg/injection, schedule: Q01DX011 (sc), vehicle: alkali diluted with saline) was 32 % of control and the T/C (dose: 1.0 mg/kg/injection, schedule: Q01DX011 (ip), vehicle: alkali diluted with saline) was 12 % of control. The T/C (dose: 1.0 mg/kg/injection, schedule: Q01DX011 (ip), vehicle: other) was 3 % of control, the T/C (dose: 2.0 mg/kg/injection, schedule: Q01DX011 (ip), vehicle: alkali diluted with saline) was 1 % of control and the T/C (dose: 8.0 mg/kg/injection, schedule: Q01DX011 (ip), vehicle: alkali diluted with saline) was 1 % of control.

CC(Sc1nc(N)nc2nc[nH]c12)C(=O)O (stereo unspecified) was tested, and the T/C (dose: 37.5 mg/kg/injection, schedule: Q01DX011 (ip), vehicle: saline) was 81 % of control, the T/C (dose: 75.0 mg/kg/injection, schedule: Q01DX011 (ip), vehicle: saline) was 74 % of control and the T/C (dose: 150.0 mg/kg/injection, schedule: Q01DX011 (ip), vehicle: saline) was 45 % of control. For the same compound, the T/C (dose: 300.0 mg/kg/injection, schedule: Q01DX011 (ip), vehicle: saline) was 12 % of control.

CN(CCO)/N=N/c1nc[nH]c1C(N)=O was tested, and the T/C (dose: 42.0 mg/kg/injection, schedule: Q01DX011 (ip), vehicle: carboxymethylcellulose (CMC)) was 60 % of control, the T/C (dose: 93.0 mg/kg/injection, schedule: Q01DX011 (ip), vehicle: carboxymethylcellulose (CMC)) was 57 % of control and the T/C (dose: 187.0 mg/kg/injection, schedule: Q01DX011 (ip), vehicle: carboxymethylcellulose (CMC)) was 26 % of control.

c1nc(N2CC2)c2cnn(C3CCCCO3)c2n1 (stereo unspecified) was tested, and the T/C (dose: 1.5 mg/kg/injection, schedule: Q01DX011 (ip), vehicle: other) was 101 % of control, the T/C (dose: 3.0 mg/kg/injection, schedule: Q01DX011 (ip), vehicle: other) was 102 % of control and the T/C (dose: 6.0 mg/kg/injection, schedule: Q01DX011 (ip), vehicle: other) was 81 % of control. For the same compound, the T/C (dose: 12.0 mg/kg/injection, schedule: Q01DX011 (ip), vehicle: other) was 99 % of control, the T/C (dose: 12.5 mg/kg/injection, schedule: Q01DX011 (ip), vehicle: saline) was 30 % of control and the T/C (dose: 25.0 mg/kg/injection, schedule: Q01DX011 (ip), vehicle: other) was 113 % of control. The T/C (dose: 25.0 mg/kg/injection, schedule: Q01DX011 (ip), vehicle: saline) was 45 % of control.

For COS(C)(=O)=O, the T/C (dose: 25.0 mg/kg/injection, schedule: Q01DX011 (ip), vehicle: carboxymethylcellulose (CMC)) was 113 % of control and the T/C [1] was 88 % of control.

With CCN(CC)CCOc1ccc(/C=N/Nc2nc3c(c(=O)n(C)c(=O)n3C)n2C)cc1 the T/C (dose: 30.0 mg/kg/injection, schedule: Q01DX011 (ip), vehicle: carboxymethylcellulose (CMC)) was 94 % of control, the T/C (dose: 60.0 mg/kg/injection, schedule: Q01DX011 (ip), vehicle: carboxymethylcellulose (CMC)) was 113 % of control and the T/C (dose: 240.0 mg/kg/injection, schedule: Q01DX011 (ip), vehicle: carboxymethylcellulose (CMC)) was 102 % of control and 124 % of control.
